# Experimental data as given in patent US12048689B2, “Pharmaceutical composition for preventing or treating inflammatory bowel disease acting as a functional antagonist for S1PR1 and S1PR4” (NEXTGEN BIOSCIENCE CO., LTD., priority 2022, dated 2024).
# Several values for one entry are separate records, joined by “and”; a condition that tells them apart may be missing. Identical values can stand only once. Like-named read-outs stand apart in the source and are kept apart here.
# Experiments:
# DSS-induced colitis mice = assay: Dextran sulfate sodium (DSS)-induced colitis model, disease activity index; type: in vivo
# Method: The effect of NXC736 for inflammatory bowel disease was evaluated using a dextran sulfate sodium (DSS)-induced colitis model. In the mouse model, inflammatory bowel disease was induced by administering DSS to mice in drinking water at a concentration of 2.5%. Treatment groups consisted of a test group administered NXC736, a positive control administered ozanimod or methotrexate (MTX), a vehicle group and a normal control, and each group had n=10. In the model in which inflammatory bowel disease was induced, NXC736, which is the compound of the present invention, was orally administered at a dose of 5 and 10 mg/kg once a day for 7 days, ozanimod as a positive control material was orally administered at 5 mg/kg once a day, and methotrexate (MTX) as a positive control material was intraperitoneally administered at 3 mg/kg three times a week.
# FIG. 3 illustrates the disease activity index (DAI) of DSS-induced colitis mice and the area under the disease activity index curve (AUC) of DSS-induced colitis mice. […] The calculation criteria for DAI are shown in the following Table 1, and the DAI was evaluated on days 0, 1, 2, 3, 4, 5, 6, 7, and 8.
# [1] = target: hERG potassium ion channels (Homo sapiens, UniProt Q12809)
# [2] = tested on: T cells, CD4 T cells, and CD8 T cells; assay: Suppressive effect on rat immune cells (FACS of peripheral blood and bone marrow after oral administration); type: in vivo; details: SD rats
# Method: To evaluate the effect of NXC736 on rat immune cells, after oral administration of NXC736 at 10 mg/kg/day to SD rats, changes in lymphocytes in the peripheral blood (PB) stream and bone marrow (BM) were classified for T cells, CD4 T cells, and CD8 T cells, and FACS analysis was performed at 0, 4, 8, 12, 24, 36, and 48 hours after the administration of a test material. A cell number was measured and shown as a percentage (%) of a control based on 0 time, and the numbers of T cells, CD4 T cells, and CD8 T cells were measured and shown as a percentage (%) of a control based on 0 time.
# [3] = Cardiovascular system in beagle dogs (telemetry heart rate, general symptoms); type: in vivo; details: oral 12.5, 25 and 50 mg/kg
# Method: NXC736 was orally administered to four male beagle dogs under unanesthetized and unrestrained conditions with a remote transmitter inserted. Thereafter, the effect of NXC736 on the cardiovascular system was evaluated by measuring the heart rate for four beagle dogs, and it was confirmed with the naked eye whether abnormal symptoms appeared.
# In this experiment, the experimental material was administered to each of the four beagle dogs over four steps. A 0.5% MC aqueous solution, which is an excipient, was administered as a control material in the first administration step (NXC7365 at 0 mg/kg), NXC736 at 12.5 mg/kg was administered in the second administration step, NXC736 at 25 mg/kg was administered in the third administration step, and NXC736 at 50 mg/kg was administered in the fourth administration step. The 1st to 4th administrations were performed at intervals of 1 week. In addition, at 0 hours before administration of the experimental material and at 0.5 hours, 1 hour, 2 hours, 3 hours, 4 hours, 6 hours, 8 hours, 12 hours and 24 hours after administration of the test material, the beagle dog's heart rate were measured.
# [4] = tested on: T cells, CD4 T cells, and CD8 T cells; assay: Suppressive effect on mouse immune cells (FACS of peripheral blood and bone marrow after oral administration); type: in vivo; details: mice; for Cell number in bone marrow, percentage of control based on 0 time: listed as NXC7363, 3 mg/kg
# Method: To confirm whether NXC736, which acts on the S1P receptor, also has an effect on lymphocyte reduction, the effect of NXC736 on immune cells was evaluated. After oral administration of NXC736 at 3 mg/kg/day to mice, changes in lymphocytes in the peripheral blood (PB) stream and bone marrow (BM) were classified for T cells, CD4T cells, and CD8T cells, and FACS analysis was performed at 0, 4, 8, 12, 24, and 36 hours after the administration of a test material. A cell number was measured and shown as a percentage (%) of a control based on 0 time.
# [5] = oral 3 mg/kg, peripheral blood, 4 hours, 3 mg/kg
# Chain of hERG potassium ion channels (Q12809 whole entry): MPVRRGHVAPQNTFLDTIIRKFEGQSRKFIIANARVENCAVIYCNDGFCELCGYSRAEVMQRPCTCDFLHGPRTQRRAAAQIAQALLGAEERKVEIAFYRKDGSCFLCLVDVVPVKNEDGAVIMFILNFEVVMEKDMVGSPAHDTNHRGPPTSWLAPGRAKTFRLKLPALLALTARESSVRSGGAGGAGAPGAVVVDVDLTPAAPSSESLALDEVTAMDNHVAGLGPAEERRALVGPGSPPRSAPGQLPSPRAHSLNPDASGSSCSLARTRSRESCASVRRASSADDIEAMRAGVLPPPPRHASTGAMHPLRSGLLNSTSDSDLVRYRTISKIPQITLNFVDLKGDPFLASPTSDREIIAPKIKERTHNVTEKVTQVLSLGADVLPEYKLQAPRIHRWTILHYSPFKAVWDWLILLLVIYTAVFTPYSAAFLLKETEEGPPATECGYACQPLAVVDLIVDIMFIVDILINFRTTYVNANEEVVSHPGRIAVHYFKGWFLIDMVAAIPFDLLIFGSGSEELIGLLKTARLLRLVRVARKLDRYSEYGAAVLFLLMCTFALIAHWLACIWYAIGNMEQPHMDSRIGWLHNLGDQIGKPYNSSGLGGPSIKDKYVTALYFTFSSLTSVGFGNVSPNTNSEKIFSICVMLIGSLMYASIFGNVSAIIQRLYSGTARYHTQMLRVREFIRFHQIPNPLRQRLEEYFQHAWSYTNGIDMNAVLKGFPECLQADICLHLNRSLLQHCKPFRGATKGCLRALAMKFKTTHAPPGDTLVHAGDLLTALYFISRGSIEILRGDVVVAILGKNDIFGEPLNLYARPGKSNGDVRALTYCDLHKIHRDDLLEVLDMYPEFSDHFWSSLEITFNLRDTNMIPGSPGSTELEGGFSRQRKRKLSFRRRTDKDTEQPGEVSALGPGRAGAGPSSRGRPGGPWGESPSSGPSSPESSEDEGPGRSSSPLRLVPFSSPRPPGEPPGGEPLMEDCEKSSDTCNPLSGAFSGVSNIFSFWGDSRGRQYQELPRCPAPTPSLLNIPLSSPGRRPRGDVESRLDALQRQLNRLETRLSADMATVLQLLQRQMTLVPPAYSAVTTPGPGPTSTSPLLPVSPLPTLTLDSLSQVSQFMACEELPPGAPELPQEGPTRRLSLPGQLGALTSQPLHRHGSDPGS
smiles,measurement,setting,value
"CN(Cc1cnc2nc(N)nc(N)c2n1)c1ccc(C(=O)N[C@@H](CCC(=O)O)C(=O)O)cc1 [MTX, methotrexate, reference compound]",Disease activity index (DAI) and AUC compared to negative control (vehicle),DSS-induced colitis mice; MTX 3 mg/kg intraperitoneally three times a week,statistically significant reduction effect
"CCCCCCCCCCn1cc(CCC(N)(CO)CO)nn1 [NXC736, 2-amino-2-(2-(1-decyl-1H-1,2,3-triazol-4-yl)ethyl)propane-1,3-diol]",Hill coefficient,[1],1.527
same,Compensated suppression rate of hERG channel currents,[1]; 1 μM,9.94±1.96%
same,Compensated suppression rate of hERG channel currents,[1]; 3 μM,13.98±4.48%
same,Compensated suppression rate of hERG channel currents,[1]; 10 μM,35.03±12.09%
same,Compensated suppression rate of hERG channel currents,[1]; 30 μM,82.62±7.31%
same,Time until which the suppressive effect on T cells was maintained,"[2]; oral 10 mg/kg, peripheral blood",24 h
same,Change of cell number in bone marrow,"[2]; oral, bone marrow",no change or a tendency to increase
same,Suppressive effect on number of T cells in peripheral blood,"[2]; oral, peripheral blood, dose-dependent (doses of the three values not given)",70% and 80% and 87%
same,General symptoms observed with the naked eye,[3],no abnormal symptoms
same,Change in heart rate,[3]; 0 to 24 hours,no change in heart rate
same,"Clinical indicators (body weight loss, stool concentration, intestinal bleeding) compared to ozanimod",DSS-induced colitis mice; NXC736 5 mg/kg and 10 mg/kg vs ozanimod 5 mg/kg,equivalent values or more
same,Disease activity index (DAI) and AUC compared to negative control (vehicle),DSS-induced colitis mice; NXC736 5 mg/kg orally once a day for 7 days,statistically significant reduction effect
same,Disease activity index (DAI) and AUC compared to negative control (vehicle),DSS-induced colitis mice; NXC736 10 mg/kg orally once a day for 7 days,statistically significant reduction effect
same,"Cell number in bone marrow, percentage of control based on 0 time","[4]; 3 mg/kg, 4 hours after administration",135% and 120%
same,"Cell number in bone marrow, percentage of control based on 0 time","[4]; 3 mg/kg, 24 hours after administration",131% and 118%
same,Time until which the suppressive effect on T cell number was maintained to some extent,"[4]; 3 mg/kg, reduced from 4 hours, then recovered",24 h
same,Time until which the reduction of cell number in peripheral blood was maintained,"[4]; oral 3 mg/kg, peripheral blood",12 h
same,"CD4 T cell number in peripheral blood, percentage of control based on 0 time",[4]; [5],16.4% and 17.6%
same,"CD8 T cell number in peripheral blood, percentage of control based on 0 time",[4]; [5],5.9% and 9.3%
same,"T cell number in peripheral blood, percentage of control based on 0 time",[4]; [5],40.6% and 41.6%
same,"Cell number level recovered in peripheral blood, percentage of control","[4]; oral 3 mg/kg, peripheral blood, 36 hours",88.9%
"CC(C)Oc1ccc(-c2nc(-c3cccc4c3CC[C@@H]4NCCO)no2)cc1C#N [ozanimod, reference compound]",Disease activity index (DAI) and AUC compared to negative control (vehicle),DSS-induced colitis mice; ozanimod 5 mg/kg orally once a day,statistically significant reduction effect
